Data reported in patent publication US10703756B2, “Pyrrolo[2,3-D]pyrimidinyl, pyrrolo[2,3-B]pyrazinyl, pyrrolo[2,3-B]pyridinyl acrylamides and epoxides thereof” (Pfizer Inc., priority 2015, dated 2020).

Key:
JAK3 enzyme = target: T1, JAK3 enzyme (Homo sapiens, UniProt P52333); assay: JAK Caliper Enzyme Assay at 1 mM ATP; type: biochemical
T1 sequence (P52333 1-1124): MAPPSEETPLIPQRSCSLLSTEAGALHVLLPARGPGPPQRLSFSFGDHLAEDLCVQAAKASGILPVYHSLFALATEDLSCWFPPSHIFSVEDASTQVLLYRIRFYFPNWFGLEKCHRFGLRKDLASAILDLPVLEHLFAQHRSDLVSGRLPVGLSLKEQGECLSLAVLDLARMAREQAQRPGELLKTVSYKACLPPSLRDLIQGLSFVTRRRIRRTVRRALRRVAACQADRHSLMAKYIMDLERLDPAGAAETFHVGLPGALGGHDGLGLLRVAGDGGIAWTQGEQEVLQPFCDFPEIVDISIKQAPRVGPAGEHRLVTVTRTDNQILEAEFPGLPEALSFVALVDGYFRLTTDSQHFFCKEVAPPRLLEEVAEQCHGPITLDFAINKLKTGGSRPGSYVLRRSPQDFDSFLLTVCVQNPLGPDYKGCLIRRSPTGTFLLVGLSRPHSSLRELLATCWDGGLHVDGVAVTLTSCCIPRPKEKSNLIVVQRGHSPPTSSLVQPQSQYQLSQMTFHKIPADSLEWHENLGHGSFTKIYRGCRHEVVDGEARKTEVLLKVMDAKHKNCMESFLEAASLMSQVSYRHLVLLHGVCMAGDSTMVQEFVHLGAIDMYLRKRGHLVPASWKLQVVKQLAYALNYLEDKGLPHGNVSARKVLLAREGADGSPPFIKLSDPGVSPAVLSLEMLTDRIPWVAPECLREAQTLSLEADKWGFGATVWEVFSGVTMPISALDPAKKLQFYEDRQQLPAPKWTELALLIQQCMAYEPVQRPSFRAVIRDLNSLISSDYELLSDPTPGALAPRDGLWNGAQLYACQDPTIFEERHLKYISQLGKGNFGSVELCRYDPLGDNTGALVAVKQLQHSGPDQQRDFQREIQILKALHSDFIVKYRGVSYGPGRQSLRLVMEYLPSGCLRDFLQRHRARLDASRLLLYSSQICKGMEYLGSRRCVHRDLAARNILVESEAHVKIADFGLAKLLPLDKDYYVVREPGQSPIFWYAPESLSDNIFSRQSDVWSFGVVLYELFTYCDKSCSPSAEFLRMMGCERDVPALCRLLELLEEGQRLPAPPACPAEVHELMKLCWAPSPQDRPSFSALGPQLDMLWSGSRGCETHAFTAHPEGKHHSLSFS
How it was run: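 Peptide phosphorylation by the kinase, adjusted to 20%-30% conversion, is measured by microfluidic separation of substrate and product on a Caliper LC3000. Compounds run as 11-point half-log series from a 600 μM DMSO top concentration.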

[1] = tested on: IL-15 induced STAT5 phosphorylation in human whole blood lymphocytes; assay: HWB IL-15 Induced STAT5 Phosphorylation Assay; type: cell-based; settings: Lymphocyte, IL-15 final 50 ng/ml, read-out: HWB_IL15 pSTAT5 IC50
How it was run: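 Heparinised human whole blood preincubated with compound (0.2% DMSO final) 45 min at 37° C, then stimulated with human IL-15 (50 ng/ml final) for 15 min. After lyse/fix and Perm Buffer III permeabilisation, stained overnight at 4° C with AlexaFluor647 anti-phospho-STAT5; read by flow cytometry gated on total lymphocytes.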

[2] = Stability of JAK3 Covalent Inhibitors in Human Whole Blood; type: in vitro ADME; settings: both sexes, 1 μM test compound, 37° C., 180 min incubation, read-out: Human blood stability t1/2
How it was run: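 Parent remaining versus time was derived from LC-MS/MS peak area ratios to internal standard after acetonitrile quench. Incubations ran for 180 min at 37° C, in duplicate, with 1 μM test compound in pooled K2-EDTA human blood (two healthy donors).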

IC50 (JAK3 enzyme) [nM]	IC50 [1] [nM]	half-life at 1 μM [2] [h]	SMILES
58	1210	> 6	C=CC(=O)N1CCN(c2cnc3[nH]cc(C(=O)N[C@H]4CCO[C@H]4C)c3n2)CC1(C)C [Example 166, 3-({[2-(4-acryloyl-3,3-dimethylpiperazin-1-yl)-5H-pyrrolo[2,3-b]pyrazin-7-yl]carbonyl}amino)-2,5-anhydro-1,3,4-trideoxy-L-threo-pentitol]
54	1090	> 6	C=CC(=O)N1CCC[C@H](Nc2cnc3[nH]cc(C(=O)NCC)c3n2)C1 (single isomer, unassigned) [Example 36]
38	659	2.28	C=CC(=O)N1C[C@@H](CF)C[C@@H](Nc2ncnc3[nH]ccc23)C1 (single isomer, unassigned) [Example 103]
57	2160	> 6	C=CC(=O)N1CCN(c2cnc3[nH]cc(C(=O)NCC(C)C)c3n2)C[C@@H]1CC(C)C [Example 288, 2-[(3S)-4-acryloyl-3-(2-methylpropyl)piperazin-1-yl]-N-(2-methylpropyl)-5H-pyrrolo[2,3-b]pyrazine-7-carboxamide]
20	195	4.79	C=CC(=O)N1CCC(Oc2cnc3[nH]cc(C(=O)N[C@H](C)COC)c3n2)CC1 [Example 214, 2-[(1-acryloylpiperidin-4-yl)oxy]-N-[(2R)-1-methoxypropan-2-yl]-5H-pyrrolo[2,3-b]pyrazine-7-carboxamide]
54	1070	2.3	C=CC(=O)N1C[C@@H](CC#N)C[C@@H](Nc2ncnc3[nH]ccc23)C1 (racemic) [Example 105, Cis-racemic-[1-acryloyl-5-(7H-pyrrolo[2,3-d]pyrimidin-4-ylamino)piperidin-3-yl]acetonitrile]
5	322	5.43	C=CC(=O)N1CCC(Nc2cnc3[nH]cc(C(=O)NCC4CC4)c3n2)CC1 [Example 172, 2-[(1-acryloylpiperidin-4-yl)amino]-N-(cyclopropylmethyl)-5H-pyrrolo[2,3-b]pyrazine-7-carboxamide]
37	287	4.2	C=CC(=O)N1CC[C@H](Nc2cnc3[nH]cc(C(=O)NCC(C)CC(F)(F)F)c3n2)[C@H](OC)C1 (mixture of isomers) [Example 328, Racemic-2-{[(3R,4S)-1-acryloyl-3-methoxypiperidin-4-yl]amino}-N-(4,4,4-trifluoro-2-methylbutyl)-5H-pyrrolo[2,3-b]pyrazine-7-carboxamide]
5	362	> 6	C=CC(=O)N1CCC(Nc2cnc3[nH]cc(C(=O)NCc4ccccc4F)c3n2)CC1 [Example 196, 2-[(1-acryloylpiperidin-4-yl)amino]-N-(2-fluorobenzyl)-5H-pyrrolo[2,3-b]pyrazine-7-carboxamide]
77	2710	5.5	C=CC(=O)N1CC[C@@H](Oc2cnc3[nH]cc(C(=O)NCC)c3n2)C[C@@H]1C (single isomer, unassigned) [Example 79]
18	1070	3.7	C=CC(=O)N1CCC(Oc2cnc3[nH]cc(C(=O)NC(C)C4CC4)c3n2)CC1 (racemic) [Example 220, Racemic-2-[(1-acryloylpiperidin-4-yl)oxy]-N-(1-cyclopropylethyl)-5H-pyrrolo[2,3-b]pyrazine-7-carboxamide]
3	318	4.85	C=CC(=O)N1CCC(Nc2cnc3[nH]cc(C(=O)NCc4cccc(F)c4)c3n2)CC1 [Example 176, 2-[(1-acryloylpiperidin-4-yl)amino]-N-(3-fluorobenzyl)-5H-pyrrolo[2,3-b]pyrazine-7-carboxamide]
22	682	4.5	C=CC(=O)N1CCC(Oc2cnc3[nH]cc(C(=O)N[C@H](C)CC)c3n2)CC1 [Example 227, 2-[(1-acryloylpiperidin-4-yl)oxy]-N-[(2R)-butan-2-yl]-5H-pyrrolo[2,3-b]pyrazine-7-carboxamide]
30	1160	4.38	C=CC(=O)N1CC[C@@H](Nc2cnc3[nH]cc(C(=O)NCC)c3n2)[C@@H](C)C1 (single isomer, unassigned) [Example 38]
60	2390	5.93	C=CC(=O)N1CCC(Oc2cnc3[nH]cc(C(=O)N[C@@H]4CCC[C@H]4F)c3n2)CC1 [Example 229, 2-[(1-acryloylpiperidin-4-yl)oxy]-N-[(1R,2R)-2-fluorocyclopentyl]-5H-pyrrolo[2,3-b]pyrazine-7-carboxamide]
69	1280	> 6	C=CC(=O)N1CCN(c2cnc3[nH]cc(C(=O)N[C@@H](C)COC)c3n2)CC1(C)C [Example 298, 2-(4-acryloyl-3,3-dimethylpiperazin-1-yl)-N-[(2S)-1-methoxypropan-2-yl]-5H-pyrrolo[2,3-b]pyrazine-7-carboxamide]
28	703	1.9	C=CC(=O)N1C[C@H](COCCC#N)C[C@H](Nc2ncnc3[nH]ccc23)C1 [Example 101, 3-{[(3R,5S)-1-Acryloyl-5-(7H-pyrrolo[2,3-d]pyrimidin-4-ylamino)piperidin-3-yl]methoxy}propanenitrile]
56	1040	> 6	C=CC(=O)N1CCN(c2cnc3[nH]cc(C(=O)N[C@H](C)COC)c3n2)CC1(C)C [Example 327]
46	1520	> 6	C=CC(=O)N1CCC(Oc2cnc3[nH]cc(C(=O)NC45CC(C4)C5)c3n2)CC1 [Example 200, 2-[(1-acryloylpiperidin-4-yl)oxy]-N-(bicyclo[1.1.1]pent-1-yl)-5H-pyrrolo[2,3-b]pyrazine-7-carboxamide]
22	221	2.42	C=CC(=O)N1CCN(c2cnc3[nH]cc(C(=O)N[C@H](C)COC)c3n2)CC1 [Example 332]
6	360	5.57	C=CC(=O)N1CCC(Nc2cnc3[nH]cc(C(=O)NCCC4CC4)c3n2)CC1 [Example 178, 2-[(1-acryloylpiperidin-4-yl)amino]-N-(2-cyclopropylethyl)-5H-pyrrolo[2,3-b]pyrazine-7-carboxamide]
115	2450	> 5.34	C=CC(=O)N1CC[C@@H](Oc2cnc3[nH]cc(C(=O)NCC)c3n2)C[C@@H]1C (racemic) [Example 77, Trans-racemic-2-{[1-acryloyl-2-methylpiperidin-4-yl]oxy}-N-ethyl-5H-pyrrolo[2,3-b]pyrazine-7-carboxamide]
21	1270	4.3	C=CC(=O)N1CCC(C)(Nc2cnc3[nH]cc(C(=O)NC4CCC4)c3n2)CC1 [Example 324, 2-[(1-acryloyl-4-methylpiperidin-4-yl)amino]-N-cyclobutyl-5H-pyrrolo[2,3-b]pyrazine-7-carboxamide]
87	3580	1.8	C=CC(=O)N1CC[C@@H](Oc2cnc3[nH]cc(C(=O)NCC)c3n2)[C@H](C)C1 (single isomer, unassigned) [Example 47]
50	780	> 6	C=CC(=O)N1CC[C@H](Nc2cnc3[nH]cc(C(=O)NCC)c3n2)[C@H](OC)C1 [Example 326, 2-{[(3R,4S)-1-acryloyl-3-methoxypiperidin-4-yl]amino}-N-ethyl-5H-pyrrolo[2,3-b]pyrazine-7-carboxamide]
